This note sets out measurements from US20080153896A1, “Polymorphic Forms of an HMG-CoA Reductase Inhibitor and Uses Thereof” (priority 2006, published 2008).

In data set [1] the target is T1, 3-hydroxy-3-methylglutaryl-coenzyme A (HMG-CoA) reductase (Homo sapiens, UniProt P04035).
T1 sequence (P04035 1-888): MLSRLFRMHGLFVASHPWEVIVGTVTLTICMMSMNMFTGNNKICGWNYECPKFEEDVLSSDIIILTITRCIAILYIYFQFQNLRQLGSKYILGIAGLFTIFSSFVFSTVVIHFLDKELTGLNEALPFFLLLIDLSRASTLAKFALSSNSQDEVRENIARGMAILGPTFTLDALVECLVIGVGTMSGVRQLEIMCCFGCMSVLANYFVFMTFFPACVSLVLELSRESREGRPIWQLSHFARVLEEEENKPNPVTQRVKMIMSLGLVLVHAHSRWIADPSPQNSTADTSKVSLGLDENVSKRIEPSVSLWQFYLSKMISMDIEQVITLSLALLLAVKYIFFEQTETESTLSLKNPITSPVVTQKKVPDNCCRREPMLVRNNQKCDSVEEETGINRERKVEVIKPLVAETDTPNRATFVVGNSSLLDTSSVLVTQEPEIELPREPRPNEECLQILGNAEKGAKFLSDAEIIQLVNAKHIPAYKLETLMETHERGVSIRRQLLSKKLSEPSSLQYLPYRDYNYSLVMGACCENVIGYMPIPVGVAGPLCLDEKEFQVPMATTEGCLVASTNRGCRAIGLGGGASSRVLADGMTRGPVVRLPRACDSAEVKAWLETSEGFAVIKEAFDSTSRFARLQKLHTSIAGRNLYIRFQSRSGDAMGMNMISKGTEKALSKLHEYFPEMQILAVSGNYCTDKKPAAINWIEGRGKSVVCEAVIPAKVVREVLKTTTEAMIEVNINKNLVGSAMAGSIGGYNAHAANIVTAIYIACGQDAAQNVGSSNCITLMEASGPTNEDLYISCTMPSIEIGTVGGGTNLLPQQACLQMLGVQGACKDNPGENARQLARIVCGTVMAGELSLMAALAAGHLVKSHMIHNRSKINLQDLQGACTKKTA
As to the kind of experiment: HMG-CoA reductase inhibition, potency compared with atorvastatin. Format: biochemical. Conditions: vs atorvastatin.

The test system of data set [2] is NRK-49F (Fibroblast) and L6 (Myoblast). Kind of data set: Inhibition of cholesterol synthesis in extra hepatic cells/cell lines.
Data set [3] addresses CYP3A4 (cytochrome P450 3A4) (Homo sapiens, UniProt P08684). As to the kind of experiment: Substrate for metabolic enzyme CYP3A4.
For a further data set, the system named is rat primary hepatocytes. Kind of data set: Inhibition of cholesterol synthesis in rat primary hepatocytes. It is filed as cell-based. Particulars: vs atorvastatin.
Another data set relates to cholesterol synthesis. As to the kind of experiment: Inhibition of cholesterol synthesis in an in vivo rat model. Particulars: vs atorvastatin.
A short description of data set [4]: Intrinsic clearance in human liver microsomes. Conditions: vs atorvastatin.

Sequence of CYP3A4 (cytochrome P450 3A4) (P08684 whole entry): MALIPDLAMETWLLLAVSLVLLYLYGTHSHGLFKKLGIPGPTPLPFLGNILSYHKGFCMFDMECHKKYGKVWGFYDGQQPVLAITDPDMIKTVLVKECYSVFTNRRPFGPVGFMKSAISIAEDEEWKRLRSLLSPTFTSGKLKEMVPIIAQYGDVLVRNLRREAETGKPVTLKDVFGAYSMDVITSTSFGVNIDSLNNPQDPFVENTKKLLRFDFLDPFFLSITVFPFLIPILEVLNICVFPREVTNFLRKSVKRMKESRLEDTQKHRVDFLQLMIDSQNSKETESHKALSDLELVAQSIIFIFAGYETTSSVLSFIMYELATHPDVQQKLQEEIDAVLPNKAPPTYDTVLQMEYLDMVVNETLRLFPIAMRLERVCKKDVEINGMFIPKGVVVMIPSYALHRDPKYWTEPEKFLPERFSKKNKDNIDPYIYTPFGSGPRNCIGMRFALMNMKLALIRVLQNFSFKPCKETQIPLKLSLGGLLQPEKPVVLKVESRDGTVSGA

As for “(3R,5R)-7-[2-(4-fluorophenyl)-5-isopropyl-3-phenyl-4-[(4-hydroxymethylphenylamino)carbonyl]-pyrrol-1-yl]-3,5-dihydroxy-heptanoic acid hemi calcium salt [compound of Formula I]”, in data set [1], the “potency relative to atorvastatin” value was “equipotent to atorvastatin”. Further, the “selectivity, inhibition of cholesterol synthesis in rat primary hepatocytes over extra hepatic cells/cell lines” value in data set [2] (NRK-49F and L6, vs atorvastatin) is recorded as “greater”. Moreover, the hepatoselectivity result in data set [2] (vs atorvastatin) is reported as “better hepatoselectivity”. Also, the “substrate for the metabolic enzyme CYP3A4” value in data set [3] is reported as “not a major substrate”. In the data set with rat primary hepatocytes, the “potency in the inhibition of cholesterol synthesis” value is “greater potency”. In the data set with cholesterol synthesis, the “potency in inhibiting cholesterol synthesis” value is listed as “more potent than atorvastatin”. Besides, in data set [4], the intrinsic clearance result is “significantly less than atorvastatin”.
